Measured values published in patent US20100298141A1, “SUBSTITUTED PYRIDINE N-OXIDE HERBICIDES” (E. I. DU PONT DE NEMOURS AND COMPANY, priority 2007, published 2010).

How the values were obtained:
[1] = system: crabgrass; assay: Test A pre-/postemergence greenhouse test; format: in vivo, Digitaria sanguinalis; settings: for Crabgrass, Large plant response rating: 0 to 100 scale; for Plant response rating, Crabgrass, Large: 0 to 100 scale where 0 is no effect and 100 is complete control
Summary of the method: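 Greenhouse herbicide screen, pre- and postemergence in parallel. Soil: loam plus sand. Formulation: non-phytotoxic solvent mix with surfactant. Postemergence stage: one to two leaves, 2–10 cm height. Evaluation: visual injury, compared with untreated controls, about 10 days after treatment.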

[2] = system: downy brome; assay: Test C pre-/postemergence test; format: in vivo, Bromus tectorum; settings: for Plant response rating, Bromegrass, Downy: scale 0 to 100, 0 no effect, 100 complete control
Excerpt: (§1) Seeds of plant species selected from blackgrass (Alopecurus myosuroides), downy brome (Bromus tectorum), green foxtail (Setaria viridis), Italian ryegrass (Lolium multiflorum), wheat (Triticum aestivum), wild oat (Avena fatua), catchweed bedstraw (Galium aparine), Russian thistle (Salsola kali), […] (Cynodon dactylon), Surinam grass (Brachiaria decumbens), cocklebur (Xanthium strumarium), corn (Zea mays), crabgrass (Digitaria sanguinalis), woolly cupgrass (Eriochloa villosa), giant foxtail (Setaria faberii), Goosegrass (Eleusin indica), johnsongrass (Sorghum halepense), kochia (Kochia scoparia), lambsquarters (Chenopodium album), morningglory (Ipomoea coccinea), eastern black nightshade (Solanum ptycanthum), yellow nutsedge (Cyperus esculentus), pigweed (Amaranthus retroflexus), common ragweed (Ambrosia elation), soybean (Glycine max), common (oilseed) sunflower (Helianthus annuus), and velvetleaf (Abutilon theophrasti) were planted and treated preemergence with test chemicals formulated in a non-phytotoxic solvent mixture which included a surfactant. At the same time, plants selected from these crop and weed species and also winter barley (Hordeum vulgare), canarygrass (Phalaris minor), and chickweed (Stellaria media) were treated with postemergence applications of some of the test chemicals formulated in the same manner. Plants ranged in height from 2 to 18 cm (1- to 4-leaf stage) for postemergence treatments. […] At time of treatment, test pots were flooded to 3 cm above the soil surface, treated by application of test compounds directly to the paddy water, and then maintained at that water depth for the duration of the test. […] A dash (-) response means no test result.

[3] = system: catchweed bedstraw; assay: Test C pre-/postemergence test; format: in vivo, Galium aparine
Excerpt: as §1

[4] = system: Surinam grass; assay: Test F preemergence test; format: in vivo, Brachiaria decumbens; settings: scale 0 to 100; for Surinam Grass plant response rating: 62 g ai/ha
Excerpt: (§2) Seeds of plant species selected from bermudagrass (Cynodon dactylon), Surinam grass (Brachiaria decumbens), large crabgrass (Digitaria sanguinalis), green foxtail (Setaria viridis), goosegrass (Eleusine indica), johnsongrass (Sorghum halepense), kochia (Kochia scoparia), pitted morningglory (Ipomoea lacunosa), purple nutsedge (Cyperus rotundus), common ragweed (Ambrosia elation), mustard (Brassica nigra), guineagrass (Panicum maximum), […] (Paspalum dilatatum), barnyardgrass (Echinochloa crus-galli), southern sandbur (Cenchrus echinatus), common sowthistle (Sonchus oleraceous), prickly […] spinosa), Italian ryegrass (Lolium multiflorum), common purslane (Portulaca oleracea), broadleaf signalgrass (Brachiaria platyphylla), common groundsel (Senecio vulgaris), common chickweed (Stellaria media), Virginia dayflower (Commelina virginica), annual bluegrass (Poa annua), naked crabgrass (Digitaria nuda), […] cochinchinensis), quackgrass (Elytrigia repens), Canada horseweed (Conyza canadensis), field bindweed (Convolvulus arvensis), […] (Bidens bipinnata), common mallow (Malva sylvestris), Russian thistle (Salsola kali), and sugarcane (Saccharum officinarum) were planted and treated preemergence with test chemicals formulated in a non-phytotoxic solvent mixture which included a surfactant. At a different time, sugarcane was treated with postemergence applications of some of the test chemicals formulated in the same manner. Plants were approximately 3- to 4-leaf stage for the postemergence treatments. Treated plants and controls were maintained in a greenhouse for 14 to 21 days, after which time all species were compared to controls and visually evaluated. […] A dash (-) response means no test result.

[5] = system: large crabgrass; assay: Test F preemergence test; format: in vivo, Digitaria sanguinalis; settings: scale 0 to 100; for Crabgrass, Large plant response rating: 62 g ai/ha
Excerpt: as §2

[6] = system: green foxtail; assay: Test F preemergence test; format: in vivo, Setaria viridis; settings: scale 0 to 100; for Foxtail, Green plant response rating: 62 g ai/ha
Excerpt: as §2

[7] = system: goosegrass; assay: Test F preemergence test; format: in vivo, Eleusine indica; settings: scale 0 to 100; for Goosegrass plant response rating: 62 g ai/ha
Excerpt: as §2

[8] = system: johnsongrass; assay: Test F preemergence test; format: in vivo, Sorghum halepense; settings: scale 0 to 100; for Johnsongrass plant response rating: 62 g ai/ha
Excerpt: as §2

[9] = system: southern sandbur; assay: Test F preemergence test; format: in vivo, Cenchrus echinatus; settings: scale 0 to 100; for Sandbur plant response rating: 62 g ai/ha
Excerpt: as §2

[10] = system: Italian ryegrass; assay: Test F preemergence test; format: in vivo, Lolium multiflorum; settings: scale 0 to 100; for Ryegrass, Italian plant response rating: 62 g ai/ha
Excerpt: as §2

[11] = system: itchgrass; assay: Test F preemergence test; format: in vivo, Rottboellia cochinchinensis; settings: scale 0 to 100; for Itchgrass plant response rating: 62 g ai/ha
Excerpt: as §2

[12] = system: field bindweed; assay: Test F preemergence test; format: in vivo, Convolvulus arvensis; settings: scale 0 to 100; for Field Bindweed plant response rating: 62 g ai/ha
Excerpt: as §2

[13] = Postemergence, 125 g ai/ha, 0 is no effect, 100 is complete control
[14] = Postemergence, 500 g ai/ha, 0 is no effect, 100 is complete control
[15] = Preemergence, 125 g ai/ha, 0 no effect, 100 complete control
[16] = 31 g ai/ha, Preemergence, scale 0 to 100
[17] = 62 g ai/ha, preemergence, scale 0 (no effect) to 100 (complete control)
[18] = preemergence, 125 g ai/ha, scale 0 (no effect) to 100 (complete control)

Cc1cc[n+]([O-])c(S(=O)(=O)Cc2c(C(F)(F)F)nn(C)c2OC(F)F)c1 [Compound 2]
35: Plant response rating, Goosegrass ([7]; 8 g ai/ha, preemergence) | Ryegrass, Italian plant response rating ([10]; Preemergence)
45: Plant response rating (0 to 100), Bromegrass, Downy ([2]; Preemergence, 250 g ai/ha) | Bromegrass, Downy plant response rating [2, 18]
50: Plant response rating, Crabgrass, Large ([5]; Preemergence, 31 g ai/ha)
30: Plant response rating, Sandbur ([9]; Preemergence, 31 g ai/ha)
65: Plant response rating, Foxtail, Green ([6]; Preemergence, 31 g ai/ha)
100: Plant response rating, Crabgrass, Large ([1]; Preemergence, 500 g ai/ha) | Plant response rating (0 to 100), Galium ([3]; Preemergence, 250 g ai/ha) | Galium plant response rating [3, 18] | Surinam Grass plant response rating ([4]; Preemergence) | Sandbur plant response rating ([9]; Preemergence)
0: Bromegrass, Downy plant response rating [2, 16] | Plant response rating (0 to 100), Bromegrass, Downy ([2]; Postemergence, 31 g ai/ha) | Plant response rating, Bromegrass, Downy ([2]; Postemergence, 62 g ai/ha) | Plant response rating, Bromegrass, Downy ([2]; Postemergence, 125 g ai/ha) | Plant response rating, Bromegrass, Downy ([2]; Postemergence, 250 g ai/ha) | Plant response rating, Surinam Grass ([4]; 8 g ai/ha, preemergence) | Plant response rating, Surinam Grass ([4]; 16 g ai/ha, preemergence) | Plant response rating, Crabgrass, Large ([5]; 8 g ai/ha, preemergence) | Plant response rating, Crabgrass, Large ([5]; Preemergence, 16 g ai/ha) | Plant response rating, Foxtail, Green ([6]; 8 g ai/ha, preemergence) | Plant response rating, Sandbur ([9]; 8 g ai/ha, preemergence) | Plant response rating, Sandbur ([9]; 16 g ai/ha, preemergence) | Plant response rating, Ryegrass, Italian ([10]; 8 g ai/ha, preemergence) | Plant response rating, Ryegrass, Italian ([10]; Preemergence, 16 g ai/ha) | Plant response rating, Itchgrass ([11]; 8 g ai/ha, preemergence) | Plant response rating, Field Bindweed ([12]; 8 g ai/ha, preemergence) | Field Bindweed plant response rating ([12]; Preemergence) | Plant response rating, Field Bindweed ([12]; Preemergence, 16 g ai/ha) | Plant response rating, Field Bindweed ([12]; Preemergence, 31 g ai/ha)
98: Goosegrass plant response rating ([7]; Preemergence)
70: Crabgrass, Large plant response rating [1, 13] | Plant response rating, Goosegrass ([7]; Preemergence, 16 g ai/ha) | Plant response rating, Johnsongrass ([8]; Preemergence, 31 g ai/ha) | Itchgrass plant response rating ([11]; Preemergence)
85: Galium plant response rating [3, 16] | Johnsongrass plant response rating ([8]; Preemergence)
90: Crabgrass, Large plant response rating [1, 14] | Crabgrass, Large plant response rating [1, 15] | Crabgrass, Large plant response rating ([5]; Preemergence) | Plant response rating, Goosegrass ([7]; Preemergence, 31 g ai/ha)
60: Plant response rating, Surinam Grass ([4]; Preemergence, 31 g ai/ha) | Plant response rating, Itchgrass ([11]; Preemergence, 31 g ai/ha)
40: Bromegrass, Downy plant response rating [2, 17]
20: Plant response rating, Foxtail, Green ([6]; Preemergence, 16 g ai/ha) | Plant response rating, Ryegrass, Italian ([10]; Preemergence, 31 g ai/ha) | Plant response rating, Itchgrass ([11]; Preemergence, 16 g ai/ha)
80: Foxtail, Green plant response rating ([6]; Preemergence)
95: Galium plant response rating [3, 17]

Cn1nc(C(F)(F)F)c(C[S+]([O-])c2ccc(Cl)c[n+]2[O-])c1OC(F)F (stereo not shown) [Compound 6]
65: Plant response rating, Foxtail, Green ([6]; Preemergence, 16 g ai/ha)
60: Plant response rating, Surinam Grass ([4]; 16 g ai/ha, preemergence) | Plant response rating, Itchgrass ([11]; Preemergence, 16 g ai/ha)
40: Plant response rating, Ryegrass, Italian ([10]; Preemergence, 16 g ai/ha)
0: Plant response rating (0 to 100), Bromegrass, Downy ([2]; Postemergence, 31 g ai/ha) | Plant response rating, Surinam Grass ([4]; 8 g ai/ha, preemergence) | Plant response rating, Crabgrass, Large ([5]; 8 g ai/ha, preemergence) | Plant response rating, Foxtail, Green ([6]; 8 g ai/ha, preemergence) | Plant response rating, Sandbur ([9]; 8 g ai/ha, preemergence) | Plant response rating, Ryegrass, Italian ([10]; 8 g ai/ha, preemergence) | Plant response rating, Itchgrass ([11]; 8 g ai/ha, preemergence) | Plant response rating, Field Bindweed ([12]; 8 g ai/ha, preemergence)
90: Crabgrass, Large plant response rating [1, 14] | Surinam Grass plant response rating ([4]; Preemergence) | Plant response rating, Goosegrass ([7]; Preemergence, 31 g ai/ha)
85: Foxtail, Green plant response rating ([6]; Preemergence) | Ryegrass, Italian plant response rating ([10]; Preemergence)
100: Crabgrass, Large plant response rating [1, 15] | Plant response rating, Crabgrass, Large ([1]; Preemergence, 500 g ai/ha) | Sandbur plant response rating ([9]; Preemergence) | Plant response rating, Sandbur ([9]; Preemergence, 31 g ai/ha)
70: Crabgrass, Large plant response rating [1, 13] | Plant response rating, Surinam Grass ([4]; Preemergence, 31 g ai/ha) | Plant response rating, Crabgrass, Large ([5]; Preemergence, 31 g ai/ha)
15: Plant response rating, Crabgrass, Large ([5]; Preemergence, 16 g ai/ha)
30: Plant response rating, Bromegrass, Downy ([2]; Postemergence, 62 g ai/ha)
20: Plant response rating, Goosegrass ([7]; 8 g ai/ha, preemergence)
75: Plant response rating, Goosegrass ([7]; Preemergence, 16 g ai/ha) | Plant response rating, Johnsongrass ([8]; 8 g ai/ha, preemergence) | Plant response rating, Johnsongrass ([8]; Preemergence, 16 g ai/ha) | Plant response rating, Sandbur ([9]; 16 g ai/ha, preemergence) | Plant response rating, Ryegrass, Italian ([10]; Preemergence, 31 g ai/ha) | Plant response rating, Itchgrass ([11]; Preemergence, 31 g ai/ha)
95: Crabgrass, Large plant response rating ([5]; Preemergence) | Goosegrass plant response rating ([7]; Preemergence) | Johnsongrass plant response rating ([8]; Preemergence) | Plant response rating, Johnsongrass ([8]; Preemergence, 31 g ai/ha) | Itchgrass plant response rating ([11]; Preemergence)
50: Plant response rating, Bromegrass, Downy ([2]; Postemergence, 125 g ai/ha) | Field Bindweed plant response rating ([12]; Preemergence) | Plant response rating, Field Bindweed ([12]; Preemergence, 16 g ai/ha) | Plant response rating, Field Bindweed ([12]; Preemergence, 31 g ai/ha)
80: Plant response rating, Bromegrass, Downy ([2]; Postemergence, 250 g ai/ha) | Plant response rating, Foxtail, Green ([6]; Preemergence, 31 g ai/ha)
